Measured values from the NIST ThermoML archive (doi:10.1016/j.jct.2013.08.022).
Where “and” joins values, the source holds several entries; their conditions need not be identical. Identical values can stand only once.

Details: Crystal, Closed cell (Static) method

c1ccccc1 [benzene]
Details	vapor or sublimation pressure
233.2 K	0.09891 kPa and 0.09902 kPa and 0.09885 kPa
235.7 K	0.1277 kPa
238.21 K	0.1641 kPa
240.7 K	0.2093 kPa and 0.2094 kPa and 0.2095 kPa
243.2 K	0.2655 kPa and 0.2656 kPa
245.68 K	0.3351 kPa and 0.3352 kPa and 0.335 kPa
248.18 K	0.4206 kPa and 0.4205 kPa
250.68 K	0.5253 kPa and 0.5257 kPa
253.17 K	0.6533 kPa and 0.6532 kPa and 0.6543 kPa
255.67 K	0.8095 kPa and 0.8096 kPa and 0.8092 kPa
258.16 K	0.9997 kPa and 0.9995 kPa and 0.9994 kPa
260.68 K	1.231 kPa and 1.229 kPa
